# Patent US10793580B2, “Substituted pyrazoloazepin-8-ones and their use as phosphodiesterase inhibitors” (LEO Pharma A/S, priority 2016, dated 2020)
# Biological target: human PDE4D catalytic domain (Homo sapiens (Human), UniProt Q08499)
# Assay: PDE4 Assay (TR-FRET, FAM-cAMP cleavage)
# Format: biochemical
# Conditions: Table 16, Examples 277-296; read-out: PDE4 IC50 range
# Summary of the method: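 PDE4D catalytic domain (S380-L740) incubated briefly with unlabelled cAMP plus FAM-cAMP and titrated compound. Reaction stopped with binding buffer holding metal-ion nanoparticles that bind AMP phospho groups and Tb donor, and AMP formation read by TR-FRET. IC50 versus controls, reported as ranges (nM).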
# Chain of human PDE4D catalytic domain (Q08499 380-740): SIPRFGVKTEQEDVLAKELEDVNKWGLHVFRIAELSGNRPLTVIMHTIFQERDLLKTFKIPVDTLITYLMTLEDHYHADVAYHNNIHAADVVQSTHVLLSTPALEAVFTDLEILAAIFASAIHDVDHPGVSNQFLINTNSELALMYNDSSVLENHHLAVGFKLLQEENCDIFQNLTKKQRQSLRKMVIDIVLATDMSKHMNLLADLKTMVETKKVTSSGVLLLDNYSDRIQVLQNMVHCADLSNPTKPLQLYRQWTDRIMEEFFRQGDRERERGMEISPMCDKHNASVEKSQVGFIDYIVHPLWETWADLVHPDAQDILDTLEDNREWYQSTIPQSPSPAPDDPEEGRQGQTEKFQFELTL
row,SMILES,IC50
1,"CCn1nc(C[C@@H](C)COC(=O)c2cscn2)c2c1C(=O)NCC1(CCOCC1)C2 [Example 285, [(2R)-3-(1-ethyl-8-oxo-spiro[6,7-dihydro-4H-pyrazolo[3,4-c]azepine-5,4′-tetrahydropyran]-3-yl)-2-methyl-propyl] thiazole-4-carboxylate]",< 0.1 µM

# Same assay, conditions: Table 17, Examples 297-316; read-out: PDE4 IC50 range
row,SMILES,IC50
1,"CCn1nc(CC(C)(C)COC(=O)c2cc(C)n(C)n2)c2c1C(=O)NCC1(CCOCC1)C2 [Example 309, [3-(1-ethyl-8-oxo-spiro[6,7-dihydro-4H-pyrazolo[3,4-c]azepine-5,4′-tetrahydro-pyran]-3-yl)-2,2-dimethyl-propyl] 1,5-dimethylpyrazole-3-carboxylate]",< 0.1 µM

# Same assay, conditions: human PDE4D catalytic domain (UniProt Q08499 [S380-L740]); 50% inhibition of substrate cleavage; read-out: PDE4 IC50 range
row,SMILES,IC50
1,"CCn1nc(CC(C)(C)COC(=O)CCSC)c2c1C(=O)NCC1(CCOCC1)C2 [Example 187, [3-(1-ethyl-8-oxo-spiro[6,7-dihydro-4H-pyrazolo[3,4-c]azepine-5,4′-tetrahydropyran]-3-yl)-2,2-dimethyl-propyl] 3-methylsulfanylpropanoate]",< 0.1 µM
2,"CCn1nc(CC(C)(C)COC(=O)c2cccc(C(=O)NC)c2)c2c1C(=O)NCC1(CCOCC1)C2 [Example 228, [3-(1-ethyl-8-oxo-spiro[6,7-dihydro-4H-pyrazolo[3,4-c]azepine-5,4′-tetrahydropyran]-3-yl)-2,2-dimethyl-propyl] 3-(methylcarbamoyl)benzoate]",< 0.1 µM
3,"CCn1nc(CC(C)(C)COC(=O)c2cccc(C(=O)N3CCOCC3)c2)c2c1C(=O)NCC1(CCOCC1)C2 [Example 232, [3-(1-ethyl-8-oxo-spiro[6,7-dihydro-4H-pyrazolo[3,4-c]azepine-5,4′-tetrahydro-pyran]-3-yl)-2,2-dimethyl-propyl] 3-(morpholine-4-carbonyl)benzoate]",< 0.1 µM
4,"CCn1nc(CCCCOC(=O)c2ccc(S(=O)(=O)NC)cc2)c2c1C(=O)NCC1(CCOCC1)C2 [Example 131, 4-(1-ethyl-8-oxo-spiro[6,7-dihydro-4H-pyrazolo[3,4-c]azepine-5,4′-tetrahydropyran]-3-yl)butyl 4-(methyl-sulfamoyl)benzoate]",< 0.1 µM
5,"CCn1nc(CC(C)(C)COC(=O)c2ccc(F)cc2)c2c1C(=O)NCC1(CCOCC1)C2 [Example 192, [3-(1-ethyl-8-oxo-spiro[6,7-dihydro-4H-pyrazolo[3,4-c]azepine-5,4′-tetrahydropyran]-3-yl)-2,2-dimethyl-propyl] 4-fluorobenzoate]",< 0.1 µM
6,"CCn1nc(CCCOC(=O)c2cc(C(F)(F)F)ccc2C)c2c1C(=O)NCC1(CCOCC1)C2 [Example 67, 3-(1-ethyl-8-oxo-spiro[6,7-dihydro-4H-pyrazolo[3,4-c]azepine-5,4′-tetrahydro-pyran]-3-yl)propyl 2-methyl-5-(trifluoromethyl)benzoate]",< 0.1 µM
7,"CCn1nc(CC(C)(C)COC(=O)c2cccc(C(=O)N3CCCCC3)c2)c2c1C(=O)NCC1(CCOCC1)C2 [Example 231, [3-(1-ethyl-8-oxo-spiro[6,7-dihydro-4H-pyrazolo[3,4-c]azepine-5,4′-tetrahydro-pyran]-3-yl)-2,2-dimethyl-propyl] 3-(piperidine-1-carbonyl)benzoate]",< 0.1 µM
8,"CCn1nc(CCCOC(=O)c2cccc(F)c2)c2c1C(=O)NCC1(CCOCC1)C2 [Example 9, 3-(1-ethyl-8-oxo-spiro[6,7-dihydro-4H-pyrazolo[3,4-c]azepine-5,4′-tetrahydropyran]-3-yl)propyl 3-fluorobenzoate]",< 0.1 µM
9,"CCn1nc(CCCOC(=O)c2cncs2)c2c1C(=O)NCC1(CCOCC1)C2 [Example 245, 3-(1-ethyl-8-oxo-spiro[6,7-dihydro-4H-pyrazolo[3,4-c]azepine-5,4′-tetrahydropyran]-3-yl)propyl thiazole-5-carboxylate]",< 0.1 µM
10,"CCn1nc(C[C@@H](C)COC(=O)c2ccc(S(=O)(=O)C3CCCC3)cc2)c2c1C(=O)NCC1(CCOCC1)C2 [Example 162, [(2R)-3-(1-ethyl-8-oxo-spiro[6,7-dihydro-4H-pyrazolo[3,4-c]azepine-5,4′-tetrahydropyran]-3-yl)-2-methyl-propyl] 4-cyclopentylsulfonylbenzoate]",< 0.1 µM
11,"CCn1nc(CCCOC(=O)C2CCSCC2)c2c1C(=O)NCC1(CCOCC1)C2 [Example 257, 3-(1-ethyl-8-oxo-spiro[6,7-dihydro-4H-pyrazolo[3,4-c]azepine-5,4′-tetrahydro-pyran]-3-yl)propyl tetrahydro-thiopyran-4-carboxylate]",< 0.1 µM
12,"CCn1nc(CCCOC(=O)c2cccc(C(=O)N3CCN(C)CC3)c2)c2c1C(=O)NCC1(CCOCC1)C2 [Example 119, 3-(1-ethyl-8-oxo-spiro[6,7-dihydro-4H-pyrazolo[3,4-c]azepine-5,4′-tetrahydropyran]-3-yl)propyl 3-(4-methylpiperazine-1-carbonyl)benzoate]",< 0.1 µM
13,"CCn1nc(CCCOC(=O)c2ccc(S(=O)(=O)N3CCOCC3)cc2)c2c1C(=O)NCC1(CCOCC1)C2 [Example 100, 3-(1-ethyl-8-oxo-spiro[6,7-dihydro-4H-pyrazolo[3,4-c]azepine-5,4′-tetrahydropyran]-3-yl)propyl 4-morpholinosulfonylbenzoate]",< 0.1 µM
14,"CCn1nc(CCCOC(=O)C(C)C)c2c1C(=O)NCC1(CCOCC1)C2 [Example 4, 3-(1-ethyl-8-oxo-spiro[6,7-dihydro-4H-pyrazolo[3,4-c]azepine-5,4′-tetrahydropyran]-3-yl)propyl 2-methylpropanoate]",< 0.1 µM
15,"CCn1nc(CCCOC(=O)c2ccc(S(=O)(=O)C(C)C)cc2)c2c1C(=O)NCC1(CCOCC1)C2 [Example 93, 3-(1-ethyl-8-oxo-spiro[6,7-dihydro-4H-pyrazolo[3,4-c]azepine-5,4′-tetrahydropyran]-3-yl)propyl 4-isopropylsulfonylbenzoate]",< 0.1 µM
16,"CCn1nc(CCCCOC(=O)c2ccc(C(C)=O)cc2)c2c1C(=O)NCC1(CCOCC1)C2 [Example 126, 4-(1-ethyl-8-oxo-spiro[6,7-dihydro-4H-pyrazolo[3,4-c]azepine-5,4′-tetrahydropyran]-3-yl)butyl 4-acetylbenzoate]",< 0.1 µM
17,"CCn1nc(CCCOC(=O)c2ccc(OC)c(C(F)(F)F)c2)c2c1C(=O)NCC1(CCOCC1)C2 [Example 79, 3-(1-ethyl-8-oxo-spiro[6,7-dihydro-4H-pyrazolo[3,4-c]azepine-5,4′-tetrahydro-pyran]-3-yl)propyl 4-methoxy-3-(trifluoromethyl)benzoate]",< 0.1 µM
18,"CCn1nc(CCCOC(=O)c2cccc(S(=O)(=O)C(C)C)c2)c2c1C(=O)NCC1(CCOCC1)C2 [Example 92, 3-(1-ethyl-8-oxo-spiro[6,7-dihydro-4H-pyrazolo[3,4-c]azepine-5,4′-tetrahydropyran]-3-yl)propyl 3-isopropylsulfonylbenzoate]",< 0.1 µM
19,"CCn1nc(CCCOC(=O)c2cc(C#N)ccc2F)c2c1C(=O)NCC1(CCOCC1)C2 [Example 31, 3-(1-ethyl-8-oxo-spiro[6,7-dihydro-4H-pyrazolo[3,4-c]azepine-5,4′-tetrahydropyran]-3-yl)propyl 5-cyano-2-fluoro-benzoate]",< 0.1 µM
20,"CCn1nc(CCCCOC(=O)c2cc(C)nc(C)c2)c2c1C(=O)NCC1(CCOCC1)C2 [Example 273, 4-(1-ethyl-8-oxo-spiro[6,7-dihydro-4H-pyrazolo[3,4-c]azepine-5,4′-tetrahydro-pyran]-3-yl)butyl 2,6-dimethylpyridine-4-carboxylate]",< 0.1 µM
21,"CCn1nc(CCCOC(=O)c2csc(C)n2)c2c1C(=O)NCC1(CCOCC1)C2 [Example 254, 3-(1-ethyl-8-oxo-spiro[6,7-dihydro-4H-pyrazolo[3,4-c]azepine-5,4′-tetrahydropyran]-3-yl)propyl 2-methylthiazole-4-carboxylate]",< 0.1 µM
22,"CCn1nc(CC(C)(C)COC(=O)c2ccc(C(=O)N(C)C)cc2)c2c1C(=O)NCC1(CCOCC1)C2 [Example 220, [3-(1-ethyl-8-oxo-spiro[6,7-dihydro-4H-pyrazolo[3,4-c]azepine-5,4′-tetra-hydropyran]-3-yl)-2,2-dimethyl-propyl] 4-(di-methylcarbamoyl)benzoate]",< 0.1 µM
23,"CCn1nc(CC(C)(C)COC(=O)c2ccc(C)cc2)c2c1C(=O)NCC1(CCOCC1)C2 [Example 188, [3-(1-ethyl-8-oxo-spiro[6,7-dihydro-4H-pyrazolo[3,4-c]azepine-5,4′-tetrahydropyran]-3-yl)-2,2-dimethyl-propyl] 4-methylbenzoate]",< 0.1 µM
24,"CCn1nc(CCCOC(=O)c2ccc(C(F)(F)F)c(F)c2)c2c1C(=O)NCC1(CCOCC1)C2 [Example 75, 3-(1-ethyl-8-oxo-spiro[6,7-dihydro-4H-pyrazolo[3,4-c]azepine-5,4′-tetrahydro-pyran]-3-yl)propyl 3-fluoro-4-(trifluoromethyl)benzoate]",< 0.1 µM
25,"CCn1nc(CCCOC(=O)c2ccc(F)cc2)c2c1C(=O)NCC1(CCOCC1)C2 [Example 10, 3-(1-ethyl-8-oxo-spiro[6,7-dihydro-4H-pyrazolo[3,4-c]azepine-5,4′-tetrahydropyran]-3-yl)propyl 4-fluorobenzoate]",< 0.1 µM
26,"CCn1nc(CCCOC(=O)c2cc(C)ns2)c2c1C(=O)NCC1(CCOCC1)C2 [Example 253, 3-(1-ethyl-8-oxo-spiro[6,7-dihydro-4H-pyrazolo[3,4-c]azepine-5,4′-tetrahydropyran]-3-yl)propyl 3-methylisothiazole-5-carboxylate]",< 0.1 µM
27,"CCn1nc(CCCOC(=O)C2CN(C(C)=O)C2)c2c1C(=O)NCC1(CCOCC1)C2 [Example 252, 3-(1-ethyl-8-oxo-spiro[6,7-dihydro-4H-pyrazolo[3,4-c]azepine-5,4′-tetrahydropyran]-3-yl)propyl 1-acetylazetidine-3-carboxylate]",0.1 to 0.5 µM
28,"CCn1nc(CC(C)(C)COC(=O)c2ccc(S(=O)(=O)CC)cc2)c2c1C(=O)NCC1(CCOCC1)C2 [Example 203, [3-(1-ethyl-8-oxo-spiro[6,7-dihydro-4H-pyrazolo[3,4-c]azepine-5,4′-tetrahydropyran]-3-yl)-2,2-dimethyl-propyl] 4-ethylsulfonylbenzoate]",< 0.1 µM
